Source: EP4635500A1, “THERAPEUTIC AGENT FOR BACTERIAL INFECTION” (Sumitomo Pharma Co., Ltd., priority 2022, dated 2024)
Read-outs that look alike come from different tables or passages of the source.

Tested on: Enterobacterales
Assay: MIC, broth microdilution, CDC/FDA Antibiotic Resistance Isolate Bank (Example 7, Tables 8, 11, 12)
Assay type: cell-based
Details: for MIC: read-out: MIC

NCC[C@H](O)C(=O)N[C@@H]1C[C@H](N)[C@@H](O[C@H]2O[C@H](CN)[C@@H](O)[C@H](O)[C@H]2O)[C@H](O)[C@H]1O[C@H]1O[C@H](CO)[C@@H](O)[C@H](N)[C@H]1O [Amikacin, amikacin]
> 64 µg/mL: MIC90 (154 strains of Enterobacterales, read-out: MIC90) | MIC (Citrobacter freundii, KUB No. 5654, AR Bank # 157) | MIC (Enterobacter cloacae, KUB No. 5535, AR Bank# 38) | MIC (Escherichia coli, KUB No. 5615, AR Bank # 118) | MIC (Escherichia coli, KUB No. 5616, AR Bank # 119) | MIC (Escherichia coli, KUB No. 5625, AR Bank # 128) | MIC (Escherichia coli, KUB No. 5781, AR Bank # 435) | MIC (Klebsiella ozaenae, KUB No. 5548, AR Bank# 51) | MIC (Klebsiella pneumoniae, KUB No. 5538, AR Bank# 41) | MIC (Klebsiella pneumoniae, KUB No. 5546, AR Bank# 49) | MIC (Klebsiella pneumoniae, KUB No. 5572, AR Bank # 75) | MIC (Klebsiella pneumoniae, KUB No. 5576, AR Bank # 79) | MIC (Klebsiella pneumoniae, KUB No. 5603, AR Bank # 106) | MIC (Klebsiella pneumoniae, KUB No. 5604, AR Bank # 107) | MIC (Klebsiella pneumoniae, KUB No. 5635, AR Bank # 138) | MIC (Klebsiella pneumoniae, KUB No. 5636, AR Bank # 139)
32 µg/mL: MIC (Klebsiella pnemnonine, KUB No. 5758, AR Bank # 362) | MIC (Klebsiella pneumoniae, KUB No. 55, AR Bank# 47) | MIC (Klebsiella pneumoniae, KUB No. 5537, AR Bank# 40) | MIC (Klebsiella pneumoniae, KUB No. 5595, AR Bank # 98) | MIC (Klebsiella pneumoniae, KUB No. 5609, AR Bank # 112) | MIC (Klebsiella pneumoniae, KUB No. 5610, AR Bank # 113) | MIC (Klebsiella pneumoniae, KUB No. 5614, AR Bank # 117) | MIC (Klebsiella pneumoniae, KUB No. 5617, AR Bank # 120) | MIC (Klebsiella pneumoniae, KUB No. 5622, AR Bank # 125) | MIC (Klebsiella pneumoniae, KUB No. 5626, AR Bank # 129)
0.25 µg/mL: MIC (Enterobacter cloacae, KUB No. 5570, AR Bank # 73)
1 µg/mL: MIC (Enterobacter cloacae, Enterobacter cloacae complex, KUB No. 5661, AR Bank # 164) | MIC (Enterobacter cloacae, Enterobacter cloacae group, KUB No. 5629, AR Bank # 132) | MIC (Enterobacter cloacae, KUB No. 5529, AR Bank# 32) | MIC (Enterobacter cloacae, KUB No. 5547, AR Bank# 50) | MIC (Enterobacter cloacae, KUB No. 5557, AR Bank# 60) | MIC (Enterobacter cloacae, KUB No. 5562, AR Bank # 65) | MIC (Enterobacter cloacae, KUB No. 5569, AR Bank # 72) | MIC (Enterobacter cloacae, KUB No. 5763, AR Bank # 367) | MIC (Escherichia coli, Escherichia coli KUB No. 5796, AR Bank #452) | MIC (Escherichia coli, Escherichia coli KUB No. 5803, AR Bank #861) | MIC (Escherichia coli, KUB No. 5574, AR Bank # 77) | MIC (Escherichia coli, KUB No. 5582, AR Bank # 85) | MIC (Escherichia coli, KUB No. 5583, AR Bank # 86) | MIC (Escherichia coli, KUB No. 5586, AR Bank # 89) | MIC (Escherichia coli, KUB No. 5601, AR Bank # 104) | MIC (Escherichia coli, KUB No. 5611, AR Bank # 114) | MIC (Escherichia coli, KUB No. 5648, AR Bank # 151) | MIC (Escherichia coli, KUB No. 5659, AR Bank # 162) | MIC (Escherichia coli, KUB No. 5769, AR Bank # 373) | MIC (Escherichia coli, KUB No. 5770, AR Bank # 374) | MIC (Escherichia coli, KUB No. 5774, AR Bank # 378) | MIC (Escherichia, KUB No. 57, AR Bank # 436 (row cut off)) | MIC (Klebsiella oxytoca, KUB No. 5776, AR Bank # 380) | MIC (Klebsiella pneumoniae, KUB No. 5531, AR Bank# 34) | MIC (Klebsiella pneumoniae, KUB No. 5540, AR Bank# 43) | MIC (Klebsiella pneumoniae, KUB No. 5584, AR Bank # 87)
16 µg/mL: MIC (Enterobacter cloacae, Enterobacter cloacae KUB No. 5792, AR Bank #448) | MIC (Enterobacter cloacae, KUB No. 5761, AR Bank # 365) | MIC (Escherichia coli, KUB No. 5558, AR Bank # 61) | MIC (Escherichia coli, KUB No. 5566, AR Bank # 69) | MIC (Escherichia coli, KUB No. 5634, AR Bank # 137) | MIC (Escherichia coli, KUB No. 5780, AR Bank # 434) | MIC (Klebsiella pneumoniae, KUB No. 5541, AR Bank# 44) | MIC (Klebsiella pneumoniae, KUB No. 5543, AR Bank# 46)
64 µg/mL: MIC (Enterobacter cloacae, KUB No. 5550, AR Bank# 53) | MIC (Klebsiella pneumoniae, KUB No. 5565, AR Bank # 68) | MIC (Klebsiella pneumoniae, KUB No. 5594, AR Bank # 97)
0.5 µg/mL: MIC (Escherichia coli, KUB No. 5581, AR Bank # 84) | MIC (Escherichia coli, KUB No. 5647, AR Bank # 150) | MIC (Escherichia coli, KUB No. 5767, AR Bank # 371) | MIC (Escherichia coli, KUB No. 5779, AR Bank # 433) | MIC (Klebsiella aerogenes, Enterobacter aerogenes, KUB No. 5777, AR Bank # 431) | MIC (Klebsiella oxytoca, KUB No. 5568, AR Bank # 71) | MIC (Klebsiella oxytoca, KUB No. 5644, AR Bank # 147) | MIC (Klebsiella pneumoniae, KUB No. 5612, AR Bank # 115)
2 µg/mL: MIC (Enterobacter cloacae, Enterobacter cloacae KUB No. 5808, AR Bank #502) | MIC (Enterobacter cloacae, KUB No. 5590, AR Bank # 93) | MIC (Enterobacter cloacae, KUB No. 5778, AR Bank # 432) | MIC (Enterobacter clooreae, KUB No. 5633, AR Bank # 136) | MIC (Escherichia coli, Escherichia coli KUB No. 5783, AR Bank #437) | MIC (Escherichia coli, Escherichia coli KUB No. 5794, AR Bank #450) | MIC (Escherichia coli, KUB No. 5564, AR Bank # 67) | MIC (Escherichia coli, KUB No. 5578, AR Bank # 81) | MIC (Escherichia coli, KUB No. 5646, AR Bank # 149) | MIC (Escherichia coli, KUB No. 5764, AR Bank # 368) | MIC (Escherichia coli, KUB No. 5765, AR Bank # 369) | MIC (Escherichia coli, KUB No. 5768, AR Bank # 372) | MIC (Klebsiella aerogenes, Enterobacter aerogenes, KUB No. 5559, AR Bank # 62) | MIC (Klebsiella aerogenes, Enterobacter aerogenes, KUB No. 5571, AR Bank # 74) | MIC (Klebsiella aerogenes, Enterobacter aerogenes, KUB No. 5658, AR Bank # 161)
8 µg/mL: MIC (Enterobacter cloaccae, KUB No. 5651, AR Bank # 154) | MIC (Escherichia coli, Escherichia coli KUB No. 5795, AR Bank #451) | MIC (Klebsiella ozaenae, KUB No. 5593, AR Bank # 96) | MIC (Klebsiella pneumoniae, KUB No. 5563, AR Bank # 66) | MIC (Klebsiella pneumoniae, KUB No. 5573, AR Bank # 76) | MIC (Klebsiella pneumoniae, KUB No. 5606, AR Bank # 109) | MIC (Klebsiella pneumoniae, KUB No. 5632, AR Bank # 135)
4 µg/mL: MIC50 (154 strains of Enterobacterales, read-out: MIC50) | MIC (Enterobacter cloacae, Enterobacter cloacae KUB No. 5807, AR Bank #501) | MIC (Enterobacter cloacae, KUB No. 5660, AR Bank # 163) | MIC (Enterobacter cloacae, KUB No. 5762, AR Bank # 366) | MIC (Escherichia coli, KUB No. 5766, AR Bank # 370) | MIC (Klebsiella oxytoca, KUB No. 5771, AR Bank # 375) | MIC (Klebsiella pneumoniae, KUB No. 5536, AR Bank# 39) | MIC (Klebsiella pneumoniae, KUB No. 5577, AR Bank # 80) | MIC (Klebsiella pneumoniae, KUB No. 5623, AR Bank # 126)
